{"source": "patent US9980889B2", "about": "“Compositions comprising P-hydroxybenzylamine” (DSM IP ASSETS B.V., priority 2012, dated 2018)", "experiment_in_all_cases": "MIC by agar dilution method according to DIN 58 940", "key": {"P. acnes": {"system": "P. acnes", "type": "cell-based, Propionibacterium acnes", "conditions": "Cutibacterium acnes, ATCC11828; P. acnes ATCC 11828; Mueller-Hinton Agar, 36° C., read after 48 h", "method": "(§1) The antimicrobial activity was assessed by determination of the Minimum Inhibitory Concentration (MIC) using the agar dilution method according to DIN 58 940 at the Labor L+SAG, D−Bad Bocklet-Grossenbrach.\n(§2) Culture plates with a diameter of 5.5 cm were prepared with fresh, kept liquid (50° C.) Mueller-Hinton Agar (double concentrated, Merck 1.05437)/aqua purificata comprising p-Hydroxybenzylamine (pHBA) in the concentrations indicated in Table 1 according to standard methods. After solidifying and drying (about 1 h at 36° C.), the culture plates were inoculated with 1 μl of a suspension of the respective microorganism with the colony forming unit as outlined in table 1. The inoculated plates were then incubated at 36° C. The MIC's (i.e. the concentrations where still no growth could be observed) were determined after 18 h for E. coli, P. aeruginosa and S. aureus; after 48 h for P. acnes and after 78 h for A. brasiliensis and C. albicans. Per sample two culture plates were prepared. As control incubated and non-incubated cultures were used.\nThe suspensions of the microorganism's No. 1-4 were prepared by homogeneous suspension of 3-5 colonies of the same morphology in physiological NaCl-solution. The suspensions were adjusted such, that the haze corresponded to the Mac Farland standard 1.0 (about 3.0*10^8 KBE*/ml). […] The colony count was determined using a spiral plater system (see table 2)."}, "A. brasiliensis": {"system": "A. brasiliensis", "type": "cell-based", "conditions": "Aspergillus brasiliensis, ATCC16404; A. brasiliensis ATCC 16404; Mueller-Hinton Agar, 36° C., read after 78 h", "method": "as §1, §2\n(§3) The suspensions of the microorganism's No. 1-4 were prepared by homogeneous suspension of 3-5 colonies of the same morphology in physiological NaCl-solution. The suspensions were adjusted such, that the haze corresponded to the Mac Farland standard 1.0 (about 3.0*10^8 KBE*/ml). For the preparation of the suspensions of the microorganisms 5 and 6, the microorganisms have been taken with a sterile swab and diluted in an amount of physiological NaCl solution such, that the haze corresponded to the Mac Farland standard 1.0. Afterwards the suspensions of the microorganisms 1 and 3-6 have been further diluted with physiological NaCl-solution in a ratio of 1:10. The colony count was determined using a spiral plater system (see table 2)."}, "S. aureus": {"system": "S. aureus", "type": "cell-based", "conditions": "Staphylococcus aureus, ATCC6538; S. aureus ATCC 6538; Mueller-Hinton Agar, 36° C., read after 18 h", "method": "as §1, §2, §3"}, "E. coli": {"system": "E. coli", "type": "cell-based", "conditions": "Escherichia coli, ATCC8739; E. coli ATCC 8739; Mueller-Hinton Agar, 36° C., read after 18 h", "method": "as §1, §2, §3"}, "P. aeruginosa": {"system": "P. aeruginosa", "type": "cell-based", "conditions": "Pseudomonas aeruginosa, ATCC9027; P. aeruginosa ATCC 9027; Mueller-Hinton Agar, 36° C., read after 18 h", "method": "as §1, §2, §3"}, "C. albicans": {"system": "C. albicans", "type": "cell-based", "conditions": "Candida albicans, ATCC10231; C. albicans ATCC 10231; Mueller-Hinton Agar, 36° C., read after 78 h", "method": "as §1, §2, §3"}}}
{"smiles": "NCc1ccc(O)cc1", "note": "[pHBA, p-Hydroxybenzylamine]", "values": [{"measurement": "MIC", "setting": "P. acnes", "value": 7900, "unit": "µg/mL"}, {"measurement": "MIC", "setting": "A. brasiliensis", "value": 5270, "unit": "µg/mL"}, {"measurement": "MIC", "setting": "S. aureus", "value": 5270, "unit": "µg/mL"}, {"measurement": "MIC", "setting": "E. coli", "value": 5270, "unit": "µg/mL"}, {"measurement": "MIC", "setting": "P. aeruginosa", "value": 5270, "unit": "µg/mL"}, {"measurement": "MIC", "setting": "C. albicans", "value": 5270, "unit": "µg/mL"}]}
